Reference: patent US6403343B2, “Method of producing a taxane-type diterpene and a method of obtaining cultured cells which produce the taxane-type dilterpene at a high rate” (Mitsui Chemicals, Inc., priority 1993, dated 2002)
Like-named read-outs stand apart in the source and are kept apart here.

Key:
[1] = tested on: cultured cells of Taxus baccata LINN; settings: 2 mM in medium
Procedure: The procedure of Example 78 was carried out except that the nutrition source was not added midway.

[2] = tested on: cultured cells of Taxus baccata LINN; settings: 3 mM in fresh medium, continuous culture
Procedure: The amount of the taxol contained in the cells and the medium were measured in the same manner as that used in Example 1.

[3] = tested on: cultured cells of Taxus baccata LINN; assay: Growth rate and taxane yield, 21-day shake culture of Taxus baccata cells with heavy metal compound, amine, antiethylene agent or Ethrel added; format: cell-based
Procedure: (§1) One gram (fresh weight) of the callus was inoculated to an Erlenmeyer flask containing 20 ml of liquid Woody Plant Medium to which the above-mentioned component was added to give the same concentration and shake culture was carried out with a rotary shaker (amplification of 25 mm, 100 rpm) and the callus was subcultured in every 21 days to accelerate the growth rate thereof.
Then shake culture was carried out at 25° C. for 21 days.
(§2) After completing the culture, cultured cells of Taxus baccata LINN were harvested by filtration and lyophilized, then the dry weight was measured to obtain the growth rate thereof. Taxane-type diterpenes were extracted from the dried callus with methanol and the like, and they were determined by comparing with standard taxol, cephalomannine, and baccatin III using high performance liquid chromatography to measure the yields of the taxane-type diterpenes.
as §1
One gram (fresh weight) of the cultured cells thus obtained was inoculated to an Erlenmeyer flask containing 20 ml of liquid Woody Plant Medium to which the above-mentioned component had been added to give the same concentration, then spermidine was added to it as amine to give the final concentration of 10^−9M-1M. Then shake culture was carried out at 25° C. for 21 days.
as §2, with “cells” for “callus”, “diterpene.” for “diterpenes.”
as §1, with “component had been” for “component was”
One gram (fresh weight) of the cultured cells thus obtained was inoculated to an Erlenmeyer flask containing 20 ml of liquid Woody Plant Medium to which the above-mentioned component had been added to give the same concentration, and shake culture was carried out at 25° C. for 14 days.

[4] = nutrition source added continuously day 2-14, 21 days
[5] = nutrition source not added midway, 21 days
[6] = 2×10^−4 M added 5 times at 4 days' intervals from day 0, total 10^−3 M
[7] = 10^−1 M added at start, 21 days
[8] = 10^−2 M added at start, 21 days
[9] = 10^−3 M added at start, 21 days
[10] = 10^−3 M added on 7th day, 14 more days
[11] = 10^−3 M added on 14th day, 7 more days
[12] = 10^−3 M added on 18th day, 3 more days
[13] = 10^−3 M at start + methyl jasmonate 10^−4 M on 14th day
[14] = 10^−3 M at start + methyl jasmonate 10^−4 M on 14th day, oxygen 10% in the gas phase
[15] = 10^−3 M at start, oxygen 10% in the gas phase
[16] = 10^−4 M added at start, 21 days
[17] = 10^−5 M added at start, 21 days
[18] = 10^−6 M added at start, 21 days
[19] = 10^−7 M added at start, 21 days
[20] = 10^−8 M added at start, 21 days
[21] = 10^−9 M added at start, 21 days

## O=S([O-])([O-])=S.[Ag+].[Ag+] [silver thiosulfate, [Ag(S2O3)2]^3−]
[1]; [4]
  yield of cells: 38 g dried weight/l
  yield of taxol from cells: 31 mg/L
  yield of taxol from medium: 89 mg/L
  yield of taxol total: 125 mg/L
[1]; [5]
  yield of cells: 22 g dried weight/l
  yield of taxol from cells: 33 mg/L
  yield of taxol from medium: 27 mg/L
  yield of taxol total: 60 mg/L
[2]; stationary state
  productivity of taxol: 8.8 mg/L/day
[2]; stationary state of 60 days
  taxol produced: 525 mg
[3]; 1 M added at start, 21 days
  growth rate: 1.2 times
  total yield of taxane: 0.64 mg/L
  yield of baccatin III: 0.08 mg/L
  yield of cephalomannine: 0.36 mg/L
  yield of taxol: 0.20 mg/L
[3]; [6]
  growth rate: 2.4 times
  total yield of taxane: 32.36 mg/L
  yield of baccatin III: 4.15 mg/L
  yield of cephalomannine: 7.27 mg/L
  yield of taxol: 20.94 mg/L
[3]; [7]
  growth rate: 1.9 times
  total yield of taxane: 3.78 mg/L
  yield of baccatin III: 0.26 mg/L
  yield of cephalomannine: 2.15 mg/L
  yield of taxol: 1.37 mg/L
[3]; [8]
  growth rate: 2.3 times
  total yield of taxane: 12.02 mg/L
  yield of baccatin III: 0.72 mg/L
  yield of cephalomannine: 5.50 mg/L
  yield of taxol: 5.80 mg/L
[3]; [9]
  growth rate: 2.7 times
  total yield of taxane: 58.99 mg/L
  yield of baccatin III: 27.90 mg/L
  yield of cephalomannine: 5.96 mg/L
  yield of taxol: 25.13 mg/L
[3]; [10]
  growth rate: 2.2 times
  total yield of taxane: 27.21 mg/L
  yield of baccatin III: 11.71 mg/L
  yield of cephalomannine: 4.86 mg/L
  yield of taxol: 10.64 mg/L
[3]; [11]
  growth rate: 2.5 times
  total yield of taxane: 10.59 mg/L
  yield of baccatin III: 2.29 mg/L
  yield of cephalomannine: 3.83 mg/L
  yield of taxol: 4.47 mg/L
[3]; [12]
  growth rate: 2.9 times
  total yield of taxane: 3.27 mg/L
  yield of baccatin III: 0.28 mg/L
  yield of cephalomannine: 1.44 mg/L
  yield of taxol: 1.55 mg/L
[3]; [13]
  growth rate: 2.7 times
  total yield of taxane: 71.32 mg/L
  yield of baccatin III: 25.14 mg/L
  yield of cephalomannine: 12.57 mg/L
  yield of taxol: 33.61 mg/L
[3]; [14]
  growth rate: 2.7 times
  total yield of taxane: 74.07 mg/L
  yield of baccatin III: 27.00 mg/L
  yield of cephalomannine: 12.34 mg/L
  yield of taxol: 34.73 mg/L
[3]; [15]
  growth rate: 2.7 times
  total yield of taxane: 59.34 mg/L
  yield of baccatin III: 22.81 mg/L
  yield of cephalomannine: 9.08 mg/L
  yield of taxol: 27.45 mg/L
[3]; [16]
  growth rate: 2.7 times
  total yield of taxane: 27.26 mg/L
  yield of baccatin III: 7.62 mg/L
  yield of cephalomannine: 5.11 mg/L
  yield of taxol: 14.53 mg/L
[3]; [17]
  growth rate: 2.7 times
  total yield of taxane: 13.18 mg/L
  yield of baccatin III: 1.13 mg/L
  yield of cephalomannine: 4.10 mg/L
  yield of taxol: 7.95 mg/L
[3]; [18]
  growth rate: 2.6 times
  total yield of taxane: 5.72 mg/L
  yield of baccatin III: 1.06 mg/L
  yield of cephalomannine: 2.86 mg/L
  yield of taxol: 1.80 mg/L
[3]; [19]
  growth rate: 2.7 times
  total yield of taxane: 4.38 mg/L
  yield of baccatin III: 0.34 mg/L
  yield of cephalomannine: 2.47 mg/L
  yield of taxol: 1.57 mg/L
[3]; [20]
  growth rate: 2.8 times
  total yield of taxane: 2.02 mg/L
  yield of baccatin III: 0.29 mg/L
  yield of cephalomannine: 0.97 mg/L
  yield of taxol: 0.76 mg/L
[3]; [21]
  growth rate: 2.7 times
  total yield of taxane: 1.09 mg/L
  yield of baccatin III: 0.20 mg/L
  yield of cephalomannine: 0.56 mg/L
  yield of taxol: 0.33 mg/L
